Assay results published in US20070049564A1 (Wyeth, priority 2005, published 2007).
In brackets after ≈: the same amount, converted by molar mass. Where two headings read alike, the source gives them in different places.

Columns and labels:
[1] = system: Staph.; assay: Range of MIC for Staph. strains, including MRSA; settings: Staphylococcus aureus, MRSA
[2] = system: E. coli GC 4560; assay: MIC, broth microdilution; settings: Escherichia coli, GC4560, E. coli GC 4560
[3] = system: E. coli GC 2236; assay: MIC, broth microdilution; settings: Escherichia coli, GC2236, E. coli GC 2236
[4] = system: E. coli GC 2203; assay: MIC, broth microdilution; settings: Escherichia coli, GC2203, E. coli GC 2203
[5] = system: E. faecalis GC 4555; assay: MIC, broth microdilution; settings: Enterococcus faecalis, GC4555, E. faecalis GC 4555
[6] = system: S. aureus GC 6467; assay: MIC, broth microdilution; settings: Staphylococcus aureus, GC6467, S. aureus GC 6467
[7] = system: S. aureus GC 1131; assay: MIC, broth microdilution; settings: Staphylococcus aureus, GC1131, S. aureus GC 1131
[8] = system: E. coli GC 2231; assay: MIC, broth microdilution; settings: Escherichia coli, GC2231, E. coli GC 2231
[9] = system: S. typhimurium GC 2172; assay: MIC, broth microdilution; settings: Salmonella enterica, TYPHIMURIUM, S. typhimurium GC 2172
[10] = system: S. pneumoniae* GC 4465; assay: MIC, broth microdilution; settings: Streptococcus pneumoniae, S. pneumoniae* GC 4465
[11] = system: S. aureus GC 6466; assay: MIC, broth microdilution; settings: Staphylococcus aureus, GC6466, S. aureus GC 6466
[12] = system: S. aureus GC 1079; assay: MIC, broth microdilution; settings: Staphylococcus aureus, GC1079, S. aureus GC 1079
[13] = system: E. coli GC 2272; assay: MIC, broth microdilution; settings: Escherichia coli, GC2272, E. coli GC 2272
[14] = system: E. coli GC 2235; assay: MIC, broth microdilution; settings: Escherichia coli, GC2235, E. coli GC 2235
[15] = system: E. coli GC 2234; assay: MIC, broth microdilution; settings: Escherichia coli, GC2234, E. coli GC 2234
[16] = system: E. coli GC 2233; assay: MIC, broth microdilution; settings: Escherichia coli, GC2233, E. coli GC 2233
[17] = system: E. coli GC 6465; assay: MIC, broth microdilution; settings: Escherichia coli, GC6465, E. coli GC 6465
[18] = system: E. faecium GC 4556; assay: MIC, broth microdilution; settings: Enterococcus faecium, GC4556, E. faecium GC 4556
[19] = system: S. epidermidis GC 4935; assay: MIC, broth microdilution; settings: Staphylococcus epidermidis, GC4935, S. epidermidis GC 4935
[20] = system: E. faecalis GC 2267; assay: MIC, broth microdilution; settings: Enterococcus faecalis, GC2267, E. faecalis GC 2267

CCCCN(CC(=O)Nc1cc(N(C)C)c2c(c1O)C(=O)C1=C(O)[C@]3(O)C(=O)C(C(N)=O)=C(O)[C@@H](N(C)C)C3CC1C2)C(=O)OCOC(=O)c1ccc(OC)cc1 (stereo partly drawn) [Example 2, ({[(2-{[(7S,10aS)-9-(aminocarbonyl)-4,7-bis(dimethylamino)-1,8,10a,11-tetrahydroxy-10,12-dioxo-5,5a,6,6a,7,10,10a,12-octahydrotetracen-2-yl]amino}-2-oxoethyl)(butyl)amino]carbonyl}oxy)methyl 4-methoxybenzoate]
MIC ([1]; read-out: Minimum inhibitory concentration (MIC), Staph. (mouse serum)): 1 to 8 µg/mL (≈ 1.26 to 10.1 µM)
MIC ([1]; read-out: Minimum inhibitory concentration (MIC), Staph. (water)): 2 to 8 µg/mL (≈ 2.52 to 10.1 µM)
MIC ([1]; read-out: Range of MIC, Staph (Mouse Serum)): 1 to 8 µg/mL (≈ 1.26 to 10.1 µM)
MIC ([1]; read-out: Range of MIC, Staph (Water)): 2 to 8 µg/mL (≈ 2.52 to 10.1 µM)
MIC ([2]; Mouse Serum pre-incubation): 0.25 µg/mL (≈ 0.315 µM)
MIC ([2]; Water pre-incubation): 4 µg/mL (≈ 5.04 µM)
MIC ([3]; Mouse Serum pre-incubation): 4 µg/mL (≈ 5.04 µM)
MIC ([3]; Water pre-incubation): 32 µg/mL (≈ 40.3 µM)
MIC ([4]; Mouse Serum pre-incubation): 2 µg/mL (≈ 2.52 µM)
MIC ([4]; Water pre-incubation): 64 µg/mL (≈ 80.6 µM)
MIC ([5]; Mouse Serum pre-incubation): 2 µg/mL (≈ 2.52 µM)
MIC ([5]; Water pre-incubation): 4 µg/mL (≈ 5.04 µM)
MIC ([6]; Mouse Serum pre-incubation): 4 µg/mL (≈ 5.04 µM)
MIC ([6]; Water pre-incubation): 8 µg/mL (≈ 10.1 µM)
MIC ([7]; Mouse Serum pre-incubation): 2 µg/mL (≈ 2.52 µM)
MIC ([7]; Water pre-incubation): 4 µg/mL (≈ 5.04 µM)
MIC ([8]; Mouse Serum pre-incubation): 4 µg/mL (≈ 5.04 µM)
MIC ([8]; Water pre-incubation): 64 µg/mL (≈ 80.6 µM)
MIC ([9]; Mouse Serum pre-incubation): > 64 µg/mL
MIC ([9]; Water pre-incubation): > 64 µg/mL
MIC ([10]; Mouse Serum pre-incubation): 0.5 µg/mL (≈ 0.63 µM)
MIC ([10]; Water pre-incubation): 0.25 µg/mL (≈ 0.315 µM)
MIC ([11]; Mouse Serum pre-incubation): 1 µg/mL (≈ 1.26 µM)
MIC ([11]; Water pre-incubation): 2 µg/mL (≈ 2.52 µM)
MIC ([12]; Mouse Serum pre-incubation): 8 µg/mL (≈ 10.1 µM)
MIC ([12]; Water pre-incubation): 8 µg/mL (≈ 10.1 µM)
MIC ([13]; Mouse Serum pre-incubation): 1 µg/mL (≈ 1.26 µM)
MIC ([13]; Water pre-incubation): 64 µg/mL (≈ 80.6 µM)
MIC ([14]; Mouse Serum pre-incubation): 2 µg/mL (≈ 2.52 µM)
MIC ([14]; Water pre-incubation): 64 µg/mL (≈ 80.6 µM)
MIC ([15]; Mouse Serum pre-incubation): 1 µg/mL (≈ 1.26 µM)
MIC ([15]; Water pre-incubation): 64 µg/mL (≈ 80.6 µM)
MIC ([16]; Mouse Serum pre-incubation): 1 µg/mL (≈ 1.26 µM)
MIC ([16]; Water pre-incubation): 64 µg/mL (≈ 80.6 µM)
MIC ([17]; Mouse Serum pre-incubation): 8 µg/mL (≈ 10.1 µM)
MIC ([17]; Water pre-incubation): 64 µg/mL (≈ 80.6 µM)
MIC ([18]; Mouse Serum pre-incubation): 4 µg/mL (≈ 5.04 µM)
MIC ([18]; Water pre-incubation): 8 µg/mL (≈ 10.1 µM)
MIC ([19]; Mouse Serum pre-incubation): 8 µg/mL (≈ 10.1 µM)
MIC ([19]; Water pre-incubation): 8 µg/mL (≈ 10.1 µM)
MIC ([20]; Mouse Serum pre-incubation): 4 µg/mL (≈ 5.04 µM)
MIC ([20]; Water pre-incubation): 4 µg/mL (≈ 5.04 µM)
